In ChEMBL document CHEMBL1201862, “PubChem BioAssay data set” (2004):
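Cells were grown in 96-well plates and exposed to each compound for 48 hours at five concentrations; endpoints were interpolated linearly between bracketing concentrations, or set to the highest concentration if not reached. At the GI50, growth is halved.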 Activity calls are given as the source filed them. No stated cut-off is given here; in the data, active = GI50 up to about 1.1 µM and inactive = higher.

Legend:
Test in all cases: DTP human tumour cell line panel, 48 h
[1] = test system: Malme-3M
[2] = test system: K562
[3] = test system: EKVX
[4] = test system: KM12
[5] = test system: ACHN
[6] = test system: NCI-H522
[7] = test system: OVCAR-5
[8] = test system: HT-29
[9] = test system: SF-539
[10] = test system: A549
[11] = test system: M19-MEL
[12] = test system: CAKI-1
[13] = test system: SNB-78
[14] = test system: LXFL 529
[15] = test system: SW-620
[16] = test system: SK-MEL-2
[17] = test system: SK-MEL-5
[18] = test system: SF-295
[19] = test system: SNB-75
[20] = test system: RXF 393
[21] = test system: XF498
[22] = test system: CCRF-CEM
[23] = test system: SR
[24] = test system: HCT-116
[25] = test system: HL-60
[26] = test system: NCI-H460
[27] = test system: SK-MEL-28
[28] = test system: OVCAR-3
[29] = test system: HOP-62
[30] = test system: A498
[31] = test system: OVCAR-8
[32] = test system: SF-268
[33] = test system: U-251
[34] = test system: DMS-273
[35] = test system: RXF 631
[36] = test system: RPMI-8226
[37] = test system: NCI-H23
[38] = test system: SK-OV-3
[39] = test system: UO-31
[40] = test system: SN12C
[41] = test system: UACC-257
[42] = test system: KM-20L2
[43] = test system: LOX IMVI
[44] = test system: DMS-114
[45] = test system: SNB-19
[46] = test system: NCI-H226
[47] = test system: M14
[48] = test system: COLO 205
[49] = test system: HCT-15
[50] = test system: 786-0
[51] = test system: UACC-62
[52] = test system: OVCAR-4
[53] = test system: MOLT-4
[54] = test system: IGROV-1
[55] = test system: TK-10
[56] = test system: HOP-92
[57] = test system: DLD-1
[58] = test system: HOP-18
[59] = test system: HCC 2998
[60] = test system: Hs-578T
[61] = test system: PC-3
[62] = test system: NCI/ADR-RES
[63] = test system: MDA-MB-231
[64] = test system: T47D
[65] = test system: MDA-MB-435
[66] = test system: MDA-N
[67] = test system: MCF7
[68] = test system: DU-145
[69] = test system: BT-549

Measured: GI50

CC[C@H]1[C@@H](C)C=C[C@@H](C)N1S(=O)(=O)c1ccc(C)cc1
inactive: [1] > 100 µM | [2] 89.9 µM | [3] > 100 µM | [4] > 100 µM | [5] 67 µM | [6] 30.3 µM | [7] > 100 µM | [8] > 100 µM | [9] > 100 µM | [10] > 100 µM | [11] > 100 µM | [12] > 100 µM | [13] > 100 µM | [14] 73.8 µM | [15] > 100 µM | [16] 19.8 µM | [17] 92 µM | [18] 95.9 µM | [19] > 100 µM | [20] 48.6 µM | [21] 14.1 µM | [22] > 100 µM | [23] 66.5 µM | [24] 51.6 µM | [25] 18.5 µM | [26] > 10 µM | [27] > 100 µM | [28] > 100 µM | [29] > 100 µM | [30] > 100 µM | [31] > 100 µM | [32] 75 µM | [33] > 100 µM | [34] > 100 µM | [35] 16.7 µM | [36] 34.1 µM | [37] > 100 µM | [38] > 100 µM | [39] 5.26 µM | [40] 92.7 µM | [41] > 100 µM | [42] > 100 µM | [43] > 100 µM | [44] 19.1 µM | [46] > 100 µM | [47] > 100 µM | [48] > 100 µM | [50] > 100 µM | [51] 97.7 µM | [52] > 100 µM | [53] 79.3 µM
61.2 µM: [49]
active: [45] 0.693 µM

CCOC12OC3=C(CC1CC1=C(CCC1=O)O2)C(=O)CC3 (stereo not drawn)
> 100 µM: [49]
inactive: [1] > 100 µM | [2] > 100 µM | [3] > 100 µM | [4] > 100 µM | [6] > 100 µM | [7] > 100 µM | [8] > 100 µM | [54] > 100 µM | [9] > 100 µM | [10] > 100 µM | [11] > 100 µM | [12] > 100 µM | [13] > 100 µM | [14] > 100 µM | [15] > 100 µM | [16] > 100 µM | [17] > 100 µM | [18] > 100 µM | [19] > 100 µM | [20] > 100 µM | [22] > 100 µM | [23] > 100 µM | [24] > 100 µM | [25] > 100 µM | [55] > 100 µM | [26] > 100 µM | [28] > 100 µM | [29] > 100 µM | [30] > 100 µM | [31] > 100 µM | [32] > 100 µM | [33] > 100 µM | [34] > 100 µM | [35] > 100 µM | [36] > 100 µM | [37] > 100 µM | [38] > 100 µM | [39] > 100 µM | [40] > 100 µM | [41] > 100 µM | [42] > 100 µM | [43] > 100 µM | [44] > 100 µM | [56] > 100 µM | [45] > 100 µM | [46] > 100 µM | [47] > 100 µM | [48] > 100 µM | [57] > 100 µM | [50] > 100 µM | [51] > 100 µM | [52] > 100 µM | [53] > 100 µM | [58] > 100 µM

Cc1c(Cl)ccc2[s+]snc12
inactive: [1] 49.8 µM | [2] 22.6 µM | [3] > 100 µM | [4] 43.1 µM | [5] 42.2 µM | [6] 19.6 µM | [7] > 100 µM | [8] 34.4 µM | [54] 48.8 µM | [9] 21.4 µM | [10] 38.6 µM | [11] 33 µM | [12] 37.9 µM | [13] 31 µM | [14] 29.6 µM | [15] 27.7 µM | [16] 29.2 µM | [17] 21 µM | [18] > 100 µM | [19] 67.6 µM | [20] 19.8 µM | [21] 25.3 µM | [22] 23.2 µM | [23] 25.2 µM | [24] 22.7 µM | [25] 17.6 µM | [55] 62.7 µM | [26] 55 µM | [27] 29.4 µM | [28] 51.3 µM | [29] 51.6 µM | [30] 68.2 µM | [31] 21.6 µM | [32] 23.8 µM | [33] 25.3 µM | [34] 38.2 µM | [35] 33.4 µM | [37] 52.5 µM | [38] > 100 µM | [39] 23.9 µM | [40] 24.3 µM | [41] 30.3 µM | [42] > 100 µM | [43] 23.7 µM | [59] 88.3 µM | [45] 73.3 µM | [46] 68.4 µM | [47] 24.5 µM | [48] > 100 µM | [57] 25.4 µM | [50] 19.1 µM | [51] 22.3 µM | [52] 42.3 µM | [53] 26.7 µM | [58] 29 µM
46.2 µM: [49]

Cc1nc2ccc(NCCN(C)C)c3c(=O)c4cc(O)ccc4n1c23
inactive: [1] 1.19 µM | [7] 1.42 µM | [11] 1.54 µM | [16] 3.35 µM | [17] 1.73 µM | [21] 1.56 µM | [55] 2.75 µM | [27] 3.03 µM | [28] 1.27 µM | [62] 1.27 µM | [30] 1.42 µM | [63] 2.56 µM | [64] 1.21 µM | [65] 1.82 µM | [66] 1.43 µM | [36] 1.19 µM | [39] 2.49 µM | [41] 3.56 µM | [68] 1.46 µM | [47] 2.67 µM | [51] 1.25 µM | [69] 3.45 µM
0.394 µM: [49]
active: [2] 0.298 µM | [60] 0.508 µM | [4] 0.783 µM | [5] 0.103 µM | [6] 0.112 µM | [8] 0.156 µM | [54] 0.839 µM | [9] 0.733 µM | [10] 0.0933 µM | [12] 0.25 µM | [14] 0.752 µM | [15] 0.122 µM | [18] 1.04 µM | [19] 0.418 µM | [22] 0.0962 µM | [23] < 0.01 µM | [24] 0.0873 µM | [25] 0.662 µM | [26] 0.0291 µM | [61] 0.653 µM | [29] 0.433 µM | [31] 0.248 µM | [32] 0.75 µM | [33] 0.352 µM | [34] 0.189 µM | [35] 0.0355 µM | [37] 0.318 µM | [38] 0.845 µM | [40] 0.299 µM | [43] 0.379 µM | [59] 0.252 µM | [67] 0.743 µM | [44] 0.885 µM | [56] 1.12 µM | [45] 0.281 µM | [46] 0.109 µM | [48] 0.445 µM | [57] 0.148 µM | [50] 0.228 µM | [52] 0.63 µM | [53] 0.0164 µM
